Calls of active or inactive are those of the source. The rule behind the calls is not given here.
How the values were obtained:
[1] = biological target: T1, Neuronal acetylcholine receptor; alpha3/beta4 (Rattus norvegicus, UniProt P04757+P12392); test: Antagonist activity at rat alpha3beta4 nicotinic receptor expressed in KXalpha-3-beta-4R2 cells assessed as nicotine-induced calcium fluorescence; assay type: functional, cell-based
[2] = biological target: Neuronal acetylcholine receptor; alpha3/beta4 (Rattus norvegicus) (UniProt P04757+P12392); test: Agonist activity at rat alpha3beta4 nicotinic receptor expressed in KXalpha-3-beta-4R2 cells assessed as nicotine-induced calcium fluorescence; assay type: functional, cell-based
[3] = biological target: T1, Neuronal acetylcholine receptor; alpha3/beta4; test: Activity at rat alpha3beta4 nicotinic receptor expressed in KXalpha-3-beta-4R2 cells assessed as nicotine-induced 86Rb+ efflux; assay type: cell-based

T1 sequence (P04757 whole entry): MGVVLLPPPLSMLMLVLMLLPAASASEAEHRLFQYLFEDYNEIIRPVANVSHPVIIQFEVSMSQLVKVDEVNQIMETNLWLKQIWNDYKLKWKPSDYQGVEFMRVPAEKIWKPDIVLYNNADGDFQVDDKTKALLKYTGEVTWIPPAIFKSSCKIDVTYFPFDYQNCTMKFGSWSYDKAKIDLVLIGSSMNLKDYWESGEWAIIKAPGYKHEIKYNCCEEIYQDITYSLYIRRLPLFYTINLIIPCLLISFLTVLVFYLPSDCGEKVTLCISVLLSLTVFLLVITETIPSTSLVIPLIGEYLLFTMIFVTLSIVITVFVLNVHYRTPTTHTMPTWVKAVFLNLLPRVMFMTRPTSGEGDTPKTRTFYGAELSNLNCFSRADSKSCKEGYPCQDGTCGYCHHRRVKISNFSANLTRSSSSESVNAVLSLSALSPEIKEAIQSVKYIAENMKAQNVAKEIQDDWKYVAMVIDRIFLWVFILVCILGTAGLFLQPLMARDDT
T1 sequence (P12392 whole entry): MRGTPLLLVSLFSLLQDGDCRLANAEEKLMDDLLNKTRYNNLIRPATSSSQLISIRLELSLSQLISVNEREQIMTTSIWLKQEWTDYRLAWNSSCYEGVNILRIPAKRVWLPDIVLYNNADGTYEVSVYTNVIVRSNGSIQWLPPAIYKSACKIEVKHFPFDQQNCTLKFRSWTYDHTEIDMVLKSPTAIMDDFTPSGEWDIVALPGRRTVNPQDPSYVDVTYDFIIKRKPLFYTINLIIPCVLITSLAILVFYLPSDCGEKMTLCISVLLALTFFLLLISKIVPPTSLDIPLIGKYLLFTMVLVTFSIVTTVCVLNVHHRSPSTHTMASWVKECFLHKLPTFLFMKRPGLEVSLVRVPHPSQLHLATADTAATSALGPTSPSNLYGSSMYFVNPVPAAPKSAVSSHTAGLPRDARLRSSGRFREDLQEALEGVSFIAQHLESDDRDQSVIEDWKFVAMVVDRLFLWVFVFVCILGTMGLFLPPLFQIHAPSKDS

| IC50 [1] | Activity [2] | Structure (SMILES) | IC50 [3] |
| --- | --- | --- | --- |
| 77 µM | inactive | COC(=O)c1cc2c(cc1OC)CCN1CCC3=C[C@@H]4OCO[C@@H]4C[C@]321 | – |
| – | – | CO[C@H]1CC=C2CCN3CCC4=C(CC(=O)OC4)[C@]23C1 | 100 µM |
| 94 µM | inactive | COc1cc2c(cc1C(N)=O)[C@]13C[C@H]4OCO[C@H]4C=C1CCN3CC2 | – |
